Experimental data published in ChEMBL document CHEMBL4325906, “Anti-inflammatory activity of triazine derivatives: A systematic review” (Eur J Med Chem, 2019).
pIC50: −log10 of the molar value. Values belong to the compound of their own block, whether it stands above or below them.

Assays:
[1] = target: T1, Prostaglandin G/H synthase 2 (Homo sapiens) (UniProt P35354); details: Blood, at 10 µM
T1 sequence (whole entry): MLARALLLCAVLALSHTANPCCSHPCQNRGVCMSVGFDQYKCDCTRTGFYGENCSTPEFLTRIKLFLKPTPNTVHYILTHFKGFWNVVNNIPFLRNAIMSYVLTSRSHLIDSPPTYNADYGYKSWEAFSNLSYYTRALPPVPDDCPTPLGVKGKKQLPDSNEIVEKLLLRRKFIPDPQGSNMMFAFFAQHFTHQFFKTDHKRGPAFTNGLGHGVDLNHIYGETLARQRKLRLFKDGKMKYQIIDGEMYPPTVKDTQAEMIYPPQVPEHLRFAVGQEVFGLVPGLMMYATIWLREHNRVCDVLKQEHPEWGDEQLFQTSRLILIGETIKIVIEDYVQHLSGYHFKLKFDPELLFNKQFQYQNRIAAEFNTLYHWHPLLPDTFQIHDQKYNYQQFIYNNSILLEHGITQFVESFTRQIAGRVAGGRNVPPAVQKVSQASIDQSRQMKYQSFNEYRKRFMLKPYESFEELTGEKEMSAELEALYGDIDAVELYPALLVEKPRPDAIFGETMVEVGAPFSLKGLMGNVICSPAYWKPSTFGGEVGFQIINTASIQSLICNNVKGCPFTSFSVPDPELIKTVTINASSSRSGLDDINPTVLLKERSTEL
Description: Inhibition of COX2 in LPS-induced human whole blood at 10 uM after 24 hrs by EIA relative to control

Rattus norvegicus [2] = experiment: Anti-inflammatory activity in carrageenan-induced Swiss albino rat assessed as reduction in paw edema by measuring swelling thickness at 10 ml/kg, po pretreated for 1 hr followed by carrageenan addition and measured up to 6 hrs at 1 hr interval relative to control; format: functional; design: scale not given: the % may be the effect or the level left
[3] = In vitro anti-inflammatory activity at 100 mg/ml incubated for 15 mins followed by heating for 10 mins and cooling by albumin denaturation assay relative to control
Mus musculus = experiment: Anti-inflammatory activity in formalin-induced Swiss albino mouse assessed as reduction in paw edema volume at 10 mg/kg, ip pretreated for 30 mins followed by formalin addition relative to control; format: functional; design: scale not given: the % may be the effect or the level left
Rattus norvegicus [4] = experiment: Anti-inflammatory activity in carrageenan-induced albino rat assessed as reduction in paw edema volume at 20 umol/kg, po measured at 1 hr intervals up to 4 hrs relative to control; format: functional; design: scale not given: the % may be the effect or the level left
[5] = target: T2, Prostaglandin G/H synthase 2 (Homo sapiens, UniProt P35354); experiment: Inhibition of recombinant human COX2 assessed as decrease in PGE2 release after 10 mins by ELISA
T2 sequence (P35354 whole entry): T1 sequence (whole entry)

[6] = Selectivity ratio of IC50 for ovine COX1 to IC50 for recombinant human COX2
[7] = target: T2, Prostaglandin G/H synthase 2; experiment: Inhibition of COX2 (unknown origin) using arachidonic acid as substrate preincubated for 20 mins followed by substrate addition measured at 1 sec interval up to 60 secs by chemiluminescence assay

- inhibition [1]: 78%
Structure (SMILES): COc1ccc(-c2nnc(N/N=C/c3ccc4c(c3)OCO4)nc2-c2ccc(OC)cc2)cc1

Structure (SMILES): O=c1nc(-c2ccccc2)c(-c2ccccc2)nn1Cc1nnc(Nc2ccc(Cl)cc2)o1
- Activity (Rattus norvegicus [2]): 57.9 - 61.56%
- Activity [3]: 71.9 to 79.2%

Structure (SMILES): O=c1nc(-c2ccccc2)c(-c2ccccc2)nn1Cc1nnc(Nc2ccccc2)s1
- Activity [3]: 71.9 to 79.2%

Structure (SMILES): O=c1nc(-c2ccccc2)c(-c2ccccc2)nn1Cc1nnc(Nc2ccc([N+](=O)[O-])cc2)s1
- Activity [3]: 71.9 to 79.2%

Structure (SMILES): Cc1sc2nnn(-c3ccccc3Cl)c(=O)c2c1C
- Activity (Mus musculus): 36.47%

Structure (SMILES): Cc1sc2nnn(-c3ccc(F)cc3)c(=O)c2c1C
- Activity (Mus musculus): 34.12%

Structure (SMILES): Cc1ccc(Nc2nnc(Cn3nc(-c4ccccc4)c(-c4ccccc4)nc3=O)s2)cc1
- Activity [3]: 71.9 to 79.2%

Structure (SMILES): COc1ccc2c(c1)c(CC(=O)O)c(C)n2C(=O)c1ccc(Cl)cc1 [INDOMETHACIN]
- Activity (Rattus norvegicus [2]): 63.56%
- Activity [3]: 82.7%
- Activity (Rattus norvegicus [4]): 80.96%

- pIC50 [5]: 5.00
- Ratio IC50 [6]: 8.79
Structure (SMILES): CCOC(=O)CSc1nnc(-c2ccc(S(C)(=O)=O)cc2)c(-c2ccc(C)cc2)n1

Structure (SMILES): COc1ccc(Nc2nnc(Cn3nc(-c4ccccc4)c(-c4ccccc4)nc3=O)o2)cc1
- Activity (Rattus norvegicus [2]): 57.9 - 61.56%
- Activity [3]: 71.9 to 79.2%

Structure (SMILES): Cc1ccc(Nc2nc(-c3ccccc3)c3c(n2)sc2c(Nc4ccc(S(=O)(=O)NC(=N)N)cc4)nnnc23)cc1
- Activity (Rattus norvegicus [4]): 78.57%

Structure (SMILES): O=C([O-])Cc1ccccc1Nc1c(Cl)cccc1Cl.[Na+] [DICLOFENAC SODIUM]
- Activity (Mus musculus): 78.82%

Structure (SMILES): O=c1nc(-c2ccccc2)c(-c2ccccc2)nn1Cc1nnc(Nc2ccc(Cl)cc2)s1
- Activity [3]: 71.9 to 79.2%

Structure (SMILES): Cc1ccc(-n2c(S)nnc2Cn2nc(-c3ccccc3)c(-c3ccccc3)nc2=O)cc1
- Activity [3]: 71.9 to 79.2%

Structure (SMILES): O=c1nc(-c2ccccc2)c(-c2ccccc2)nn1Cc1nnc(S)n1-c1ccc(Cl)cc1
- Activity [3]: 71.9 to 79.2%

- pIC50 [5]: 5.00
- Ratio IC50 [6]: 8.79
Structure (SMILES): CCOC(=O)CSc1nnc(-c2ccc(S(C)(=O)=O)cc2)c(-c2ccc(OC)cc2)n1

Structure (SMILES): Cc1ccc(Nc2nnc(Cn3nc(-c4ccccc4)c(-c4ccccc4)nc3=O)o2)cc1
- Activity (Rattus norvegicus [2]): 57.9 - 61.56%
- Activity [3]: 71.9 to 79.2%

Structure (SMILES): Cc1sc2nnn(-c3ccccc3)c(=O)c2c1C
- Activity (Mus musculus): 70.82%

Structure (SMILES): O=c1nc(-c2ccccc2)c(-c2ccccc2)nn1Cc1nnc(Nc2ccccc2)o1
- Activity (Rattus norvegicus [2]): 57.9 - 61.56%
- Activity [3]: 71.9 to 79.2%

- inhibition [1]: 78%
Structure (SMILES): COc1ccc(-c2nnc(N/N=C/c3cccc(OC)c3OC)nc2-c2ccc(OC)cc2)cc1

Structure (SMILES): Cc1ccc(-c2cc(C(F)(F)F)nn2-c2ccc(S(N)(=O)=O)cc2)cc1 [CELECOXIB]
- Activity (Rattus norvegicus [2]): 62.26%
- Activity [3]: 80.3%

- pIC50 [5]: 5.00
- Ratio IC50 [6]: 8.79
Structure (SMILES): CCOC(=O)CSc1nnc(-c2ccc(S(C)(=O)=O)cc2)c(-c2ccc(F)cc2)n1

Structure (SMILES): O=c1nc(-c2ccccc2)c(-c2ccccc2)nn1Cc1nnc(S)n1-c1ccc([N+](=O)[O-])cc1
- Activity [3]: 71.9 to 79.2%

- pIC50 [5]: 5.00
- Ratio IC50 [6]: 8.79
Structure (SMILES): CCOC(=O)CSc1nnc(-c2ccc(S(C)(=O)=O)cc2)c(-c2ccccc2)n1

Structure (SMILES): COc1ccc(-n2c(S)nnc2Cn2nc(-c3ccccc3)c(-c3ccccc3)nc2=O)cc1
- Activity [3]: 71.9 to 79.2%

- pIC50 [7]: 4.70
Structure (SMILES): CCOC(=O)c1cnn(-c2ccccn2)c1-n1nnc2ccccc2c1=O

Structure (SMILES): O=c1nc(-c2ccccc2)c(-c2ccccc2)nn1Cc1nnc(Nc2ccc([N+](=O)[O-])cc2)o1
- Activity (Rattus norvegicus [2]): 57.9 - 61.56%
- Activity [3]: 71.9 to 79.2%

Structure (SMILES): Cc1ccc(Nc2nc(-c3ccccc3)c3c(n2)sc2c(Cl)nnnc23)cc1
- Activity (Rattus norvegicus [4]): 82.85%

- pIC50 [5]: 5.00
- Ratio IC50 [6]: 8.79
Structure (SMILES): CCOC(=O)CSc1nnc(-c2ccc(S(C)(=O)=O)cc2)c(-c2ccc(Cl)cc2)n1

Structure (SMILES): COc1ccc(Nc2nnc(Cn3nc(-c4ccccc4)c(-c4ccccc4)nc3=O)s2)cc1
- Activity [3]: 71.9 to 79.2%

Structure (SMILES): O=c1nc(-c2ccccc2)c(-c2ccccc2)nn1Cc1nnc(S)n1-c1ccccc1
- Activity [3]: 71.9 to 79.2%

Structure (SMILES): Cc1sc2nnn(-c3ccc(F)c(Cl)c3)c(=O)c2c1C
- Activity (Mus musculus): 36.35%
